PubChem BioAssay AID248 (DTP/NCI, 2004)
Where “and” joins values, the source holds several entries; their conditions need not be identical. Identical values can stand only once. Inconclusive results and toxic doses are left out. Rule as the data show it: active = T/C of 150% or more; inactive = T/C below 125%.

System: L1210 leukemia ip in BDF1 mice, survival T/C
Assay: NCI In Vivo Anticancer Drug Screen. Data for tumor model L1210 Leukemia (intraperitoneal) in B6D2F1 (BDF1) mice
Details: endpoint: mean survival time, higher = longer survival
Method in brief: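 Read-out is survival time, reported as the treated-group measurement over the vehicle-control measurement.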

[1] = dose: 100.0 mg/kg/injection, schedule: Q01DX009 (ip), vehicle: Klucel (hydroxypropylcellulose) (HPC)
[2] = dose: 200.0 mg/kg/injection, schedule: Q01DX009 (ip), vehicle: Klucel (hydroxypropylcellulose) (HPC)
[3] = dose: 400.0 mg/kg/injection, schedule: Q01DX009 (ip), vehicle: Klucel (hydroxypropylcellulose) (HPC)
[4] = dose: 100.0 mg/kg/injection, schedule: Q01DX001 (ip), vehicle: saline
[5] = dose: 200.0 mg/kg/injection, schedule: Q01DX001 (ip), vehicle: saline
[6] = dose: 100.0 mg/kg/injection, schedule: Q04DX003 (ip), vehicle: Klucel (hydroxypropylcellulose) (HPC)
[7] = dose: 100.0 mg/kg/injection, schedule: Q01DX001 (ip), vehicle: carboxymethylcellulose (CMC)
[8] = dose: 200.0 mg/kg/injection, schedule: Q01DX001 (ip), vehicle: carboxymethylcellulose (CMC)
[9] = dose: 100.0 mg/kg/injection, schedule: Q04DX002 (ip), vehicle: Klucel (hydroxypropylcellulose) (HPC)
[10] = dose: 200.0 mg/kg/injection, schedule: Q04DX002 (ip), vehicle: Klucel (hydroxypropylcellulose) (HPC)
[11] = dose: 100.0 mg/kg/injection, schedule: Q01DX009 (ip), vehicle: saline
[12] = dose: 100.0 mg/kg/injection, schedule: Q04DX003 (ip), vehicle: saline
[13] = dose: 200.0 mg/kg/injection, schedule: Q04DX003 (ip), vehicle: saline
[14] = dose: 400.0 mg/kg/injection, schedule: Q04DX003 (ip), vehicle: saline

Measured: T/C

Cc1ccc(C)c(CCl)c1
inactive: dose: 75.0 mg/kg/injection, schedule: Q01DX001 (ip), vehicle: saline 101 % of control | dose: 150.0 mg/kg/injection, schedule: Q01DX001 (ip), vehicle: saline 95 % of control

CCOc1ccc(/C=C\C(=O)O)cc1
inactive: [1] 97 % of control | [2] 102 % of control | [3] 107 % of control

Nc1ccc(N=Nc2ccc(O)cc2)c(N)n1
inactive: [4] 92 % of control | [5] 107 % of control

CC1OC1C(=O)Sc1ccccc1 (stereo unspecified)
inactive: dose: 25.0 mg/kg/injection, schedule: Q04DX003 (ip), vehicle: Klucel (hydroxypropylcellulose) (HPC) 100 % of control | dose: 50.0 mg/kg/injection, schedule: Q04DX003 (ip), vehicle: Klucel (hydroxypropylcellulose) (HPC) 103 % of control | [6] 93 % of control and 86 % of control

CC1(C)CC=CC(COC(=O)c2ccccc2C(=O)O)C1 (stereo unspecified)
inactive: [7] 102 % of control | [8] 107 % of control | dose: 400.0 mg/kg/injection, schedule: Q01DX001 (ip), vehicle: carboxymethylcellulose (CMC) 96 % of control

COC(=O)c1nnn(S(=O)(=O)c2ccc(C)cc2)c1C(=O)OC
inactive: [9] 91 % of control | [10] 95 % of control | dose: 400.0 mg/kg/injection, schedule: Q04DX002 (ip), vehicle: Klucel (hydroxypropylcellulose) (HPC) 91 % of control

Oc1ccc(/C=N/Nc2nnc(N/N=C/c3ccc(O)cc3O)c3ccccc23)c(O)c1
inactive: dose: 2.5 mg/kg/injection, schedule: Q01DX015 (ip), vehicle: carboxymethylcellulose (CMC) 97 % of control | dose: 5.0 mg/kg/injection, schedule: Q01DX009 (ip), vehicle: saline 104 % of control | dose: 5.0 mg/kg/injection, schedule: Q01DX015 (ip), vehicle: carboxymethylcellulose (CMC) 98 % of control | dose: 10.0 mg/kg/injection, schedule: Q01DX009 (ip), vehicle: saline 109 % of control | dose: 10.0 mg/kg/injection, schedule: Q01DX015 (ip), vehicle: carboxymethylcellulose (CMC) 110 % of control | dose: 19.0 mg/kg/injection, schedule: Q01DX015 (ip), vehicle: carboxymethylcellulose (CMC) 120 % of control | dose: 20.0 mg/kg/injection, schedule: Q01DX009 (ip), vehicle: saline 106 % of control | dose: 32.0 mg/kg/injection, schedule: Q01DX015 (ip), vehicle: carboxymethylcellulose (CMC) 114 % of control | dose: 50.0 mg/kg/injection, schedule: Q01DX001 (ip), vehicle: saline 98 % of control | [7] 111 % of control | [4] 97 % of control | [8] 121 % of control | [5] 106 % of control | dose: 600.0 mg/kg/injection, schedule: Q01DX001 (ip), vehicle: carboxymethylcellulose (CMC) 117 % of control

CC(C)(C)C(=O)c1nn[nH]n1
inactive: dose: 50.0 mg/kg/injection, schedule: Q01DX009 (ip), vehicle: saline 91 % of control | [4] 104 % of control | [11] 98 % of control | [5] 102 % of control

O=C(O)CCCCOc1ccc([N+](=O)[O-])cc1Cl
inactive: [1] 109 % of control | [2] 103 % of control

CC(C)(C)NC(=O)CCC(=O)O
inactive: dose: 75.0 mg/kg/injection, schedule: Q04DX002 (ip), vehicle: Klucel (hydroxypropylcellulose) (HPC) 89 % of control | dose: 150.0 mg/kg/injection, schedule: Q04DX002 (ip), vehicle: Klucel (hydroxypropylcellulose) (HPC) 92 % of control | dose: 300.0 mg/kg/injection, schedule: Q04DX002 (ip), vehicle: Klucel (hydroxypropylcellulose) (HPC) 100 % of control

c1ccc(C(c2ccccc2)[P+](c2ccccc2)(c2ccccc2)c2ccccc2)cc1
inactive: dose: 0.75 mg/kg/injection, schedule: Q01DX005 (ip), vehicle: gum acacia 106 % of control and 110 % of control | dose: 1.5 mg/kg/injection, schedule: Q01DX005 (ip), vehicle: gum acacia 106 % of control | dose: 1.5 mg/kg/injection, schedule: Q01DX009 (ip), vehicle: gum acacia 111 % of control | dose: 3.0 mg/kg/injection, schedule: Q01DX009 (ip), vehicle: gum acacia 111 % of control | dose: 3.12 mg/kg/injection, schedule: Q04DX002 (ip), vehicle: gum acacia 100 % of control | dose: 6.25 mg/kg/injection, schedule: Q01DX005 (ip), vehicle: gum acacia 95 % of control | dose: 6.25 mg/kg/injection, schedule: Q04DX002 (ip), vehicle: gum acacia 95 % of control | dose: 12.5 mg/kg/injection, schedule: Q04DX002 (ip), vehicle: gum acacia 111 % of control and 92 % of control

S=C1Nc2ccccc2CS1
inactive: [1] 100 % of control | [2] 98 % of control | [3] 102 % of control

O=C(O)CCC(=O)Nc1cccc(Oc2ccc([N+](=O)[O-])cc2[N+](=O)[O-])c1
inactive: [12] 106 % of control | [13] 98 % of control | [14] 97 % of control

C[N+](C)(CCN1C(=O)c2ccc3c4c(ccc(c24)C1=O)C(=O)N(CC[N+](C)(C)Cc1ccccc1)C3=O)Cc1ccccc1
inactive: dose: 0.1 mg/kg/injection, schedule: Q01DX001 (ip), vehicle: saline 105 % of control | dose: 0.2 mg/kg/injection, schedule: Q01DX001 (ip), vehicle: saline 101 % of control | dose: 0.4 mg/kg/injection, schedule: Q01DX001 (ip), vehicle: saline 110 % of control | dose: 0.78 mg/kg/injection, schedule: Q01DX001 (ip), vehicle: saline 106 % of control

CCCN1CCCN(CCC)C1=O
inactive: dose: 50.0 mg/kg/injection, schedule: Q04DX002 (ip), vehicle: Klucel (hydroxypropylcellulose) (HPC) 102 % of control | [9] 102 % of control | [10] 93 % of control

O=C(Nc1cccc(O)c1)Oc1cccc(Cl)c1
inactive: dose: 100.0 mg/kg/injection, schedule: Q01DX009 (ip), vehicle: saline with Tween-80 98 % of control | dose: 200.0 mg/kg/injection, schedule: Q01DX009 (ip), vehicle: saline with Tween-80 102 % of control | dose: 400.0 mg/kg/injection, schedule: Q01DX009 (ip), vehicle: saline with Tween-80 106 % of control

O=C(Nc1cc([N+](=O)[O-])ccc1F)N(C1CCCCC1)C1CCCCC1
inactive: [6] 87 % of control | dose: 200.0 mg/kg/injection, schedule: Q04DX003 (ip), vehicle: Klucel (hydroxypropylcellulose) (HPC) 96 % of control | dose: 400.0 mg/kg/injection, schedule: Q04DX003 (ip), vehicle: Klucel (hydroxypropylcellulose) (HPC) 104 % of control

OC1C(O)C(O)C(O)C(O)C1O (stereo unspecified)
inactive: [11] 97 % of control | dose: 100.0 mg/kg/injection, schedule: Q04DX003 (ip), vehicle: saline with Tween-80 104 % of control | [12] 98 % of control | dose: 200.0 mg/kg/injection, schedule: Q01DX009 (ip), vehicle: saline 92 % of control | dose: 200.0 mg/kg/injection, schedule: Q04DX003 (ip), vehicle: saline with Tween-80 98 % of control | [13] 98 % of control | dose: 375.0 mg/kg/injection, schedule: Q01DX001 (ip), vehicle: carboxymethylcellulose (CMC) 100 % of control | dose: 400.0 mg/kg/injection, schedule: Q01DX009 (ip), vehicle: saline 97 % of control | dose: 400.0 mg/kg/injection, schedule: Q04DX003 (ip), vehicle: saline with Tween-80 98 % of control | [14] 107 % of control | dose: 750.0 mg/kg/injection, schedule: Q01DX001 (ip), vehicle: carboxymethylcellulose (CMC) 98 % of control | dose: 1500.0 mg/kg/injection, schedule: Q01DX001 (ip), vehicle: carboxymethylcellulose (CMC) 98 % of control

CCc1ccccn1
inactive: [4] 100 % of control | [5] 102 % of control | dose: 400.0 mg/kg/injection, schedule: Q01DX001 (ip), vehicle: saline 95 % of control
